From ChEMBL document CHEMBL3988442, “University of Dundee, Small-Polar-MMV Screening Library” (2021)
“And” between values parts separate entries of the source, which are not always exact repeats. Equal values may be shown once.

Tested on: Plasmodium falciparum
Experiment: Calibr Malaria Delayed Death Assay SOP
Assay type: functional, organism-based
Details: for IC50: Plasmodium falciparum

CC(C)C(CNCc1cccc2c1OCO2)N1CCOCC1 (configuration not stated)
pIC50: 6.558
IC50: 429 nM

CN1CCn2c(-c3cccc(F)c3)cnc2C12CCN(CC1CC1)CC2.O=C(O)C(F)(F)F.O=C(O)C(F)(F)F.O=C(O)C(F)(F)F
pIC50: 6.083
IC50: 1100 nM

CCc1ccc(C2c3nc[nH]c3CCN2Cc2nccn2CC)nc1 (configuration not stated)
pIC50: 6.077
IC50: 819 nM

CCN(CC)Cc1ccccc1NC(=O)N(C)Cc1ccccc1O
pIC50: 6.076
IC50: 765 nM

Cl.OC1(c2ccc(F)cc2)CCN(Cc2ccccc2N2CCCC2)CC1
pIC50: 5.924
IC50: 850 nM

CCC(C)(C)n1nnnc1C(c1cccs1)N1CCc2ccccc2C1 (configuration not stated)
pIC50: 6.38
IC50: 550 nM

Cc1cc(C)cc(CN2C[C@H]3COC[C@H](N4CCN(C)CC4)[C@H]3C2)c1.O=C(O)C(F)(F)F.O=C(O)C(F)(F)F.O=C(O)C(F)(F)F
pIC50: 6.958
IC50: 197 nM

Cc1ccccc1CN(CCN(C)C)Cc1ccc(S(C)(=O)=O)cc1
pIC50: 5.997
IC50: 890 nM

Cc1c(C)n(CC(O)CN2CCN(CCO)CC2)c2c(Cl)cccc12.Cl (configuration not stated)
pIC50: 6.075
IC50: 950 nM

CN1CCC(N(Cc2ccco2)S(=O)(=O)c2ccc(Cl)cc2)CC1
pIC50: 6.409
IC50: 560 nM

Cc1cc(C)c(CNCC(O)c2ccc(F)c(F)c2)c(C)c1.Cl (configuration not stated)
pIC50: 6.932
IC50: 125 nM

CCNC(=O)N(C)C1CCN(Cc2ncc(C)c(OC)c2C)CC1
pIC50: 5.844
IC50: 1590 nM

COc1cccc(CN2CC(=O)N(c3ccccc3C)CC2C)c1OC (configuration not stated)
pIC50: 5.928
IC50: 1420 nM

COc1ccc(NC(=O)c2ccc(-n3ncc(C#N)c3N)cc2)cn1
pIC50: 5.946
IC50: 1110 nM

CCN1CCC2(CC1)CC(NCc1cccc(C)n1)c1ccccc1O2.O=C(O)C(F)(F)F.O=C(O)C(F)(F)F.O=C(O)C(F)(F)F (configuration not stated)
pIC50: 6.22
IC50: 780 nM

COc1ccc(CN2CC[C@@H](O)[C@@H]2Cc2ccccc2)cc1.O=C(O)C(F)(F)F
pIC50: 5.901
IC50: 1540 nM

CN(C)[C@@H]1CCN(c2ncc(F)cn2)[C@H]1Cc1ccccc1.O=C(O)C(F)(F)F.O=C(O)C(F)(F)F
pIC50: 6.038
IC50: 868 nM

Cc1ccc(CNC(C)c2cc(F)ccc2N2CCN(C)CC2)o1 (configuration not stated)
pIC50: 6.454
IC50: 329 nM

Oc1ccc(Cl)cc1CNCc1ccccc1C(F)(F)F
pIC50: 6.047
IC50: 1080 nM

CN(CCCO)Cc1cc(Cl)ccc1OCC(O)CN1CCCCCC1 (configuration not stated)
pIC50: 6.2
IC50: 738 nM

CCc1ccc(CN(CCN(C)C)Cc2ccc(C)s2)nc1
pIC50: 6.04
IC50: 965 nM

CN(C)CC1CSCCCN1S(=O)(=O)Cc1cccc(F)c1 (configuration not stated)
pIC50: 6.26
IC50: 751 nM

O=C(NCCc1ccccc1)NCCN1CCC(c2cccs2)CC1
pIC50: 6.05
IC50: 855 nM

Cc1ccc(CN(CCN(C)C)Cc2c(C)nc3sccn23)o1.O=C(O)CC(O)(CC(=O)O)C(=O)O
pIC50: 6.093
IC50: 506 nM

CN(Cc1ccco1)C[C@H]1OC[C@@H]2CCN(Cc3ccsc3)C[C@@H]21.O=C(O)C(F)(F)F.O=C(O)C(F)(F)F
pIC50: 6.029
IC50: 1290 nM

O=C(CC1CCCC1)NCCNCc1cccc2c1OCCO2
pIC50: 6.128
IC50: 938 nM

CCC1CN(C(=O)c2ccc(Cl)cc2O)CCN1C(C)C (configuration not stated)
pIC50: 5.81
IC50: 1130 nM

Clc1ccc(C2(CNC3=NCCN3)CCCC2)cc1.I
pIC50: 6.736
IC50: 226 nM

NC1(C(=O)NCC2CCCN(Cc3ccccc3F)C2)CCCC1 (configuration not stated)
pIC50: 6.224
IC50: 470 nM

FC(F)(F)c1cc(C2CCNCC2)nc(-c2ccsc2)n1
pIC50: 6.171
IC50: 626 nM

Cc1nccn1CCCN1CCCC(c2ccccc2)C1 (configuration not stated)
pIC50: 6.639
IC50: 234 nM

CC(O)c1cccc(Nc2nc(NCCO)c3ccccc3n2)c1 (configuration not stated)
pIC50: 6.601
IC50: 220 nM

CCN1CCN(c2ccc(F)cc2C(C)NCc2cscn2)CC1 (configuration not stated)
pIC50: 5.999
IC50: 907 nM

CC1(C)CC(N(Cc2cccnc2)Cc2cccc(F)c2)CC(C)(C)N1.O=C(O)CC(O)(CC(=O)O)C(=O)O
pIC50: 6.708
IC50: 291 nM

CC(C)(C)C(=O)NCCNCc1ccc(Cl)c2cccnc12
pIC50: 6.099
IC50: 703 nM

CCN1CCN(C[C@@H]2CN(c3ncc(Cl)cc3F)C[C@@H]2CO)CC1
pIC50: 6.156
IC50: 651 nM

Br.CCOc1ccc(Br)cc1C1CCCN1 (configuration not stated)
pIC50: 6.082
IC50: 534 nM

Nc1nc2c(c(N3CCCC(c4nnc5ccccn45)C3)n1)CCNC2 (configuration not stated)
pIC50: 6.831
IC50: 144 nM

CN1CCC(O)(CNCc2ccc(F)c(C(F)(F)F)c2)CC1
pIC50: 6.096
IC50: 750 nM

CN(CCc1cccc2ccccc12)Cc1nc(N)nc(N(C)C)n1
pIC50: 5.915
IC50: 1240 nM

CCC(NCc1ccccc1Cl)c1ccccc1OCC(=O)NC (configuration not stated)
pIC50: 6.134 and 5.792

CCc1ncc2c(n1)CN(CC(=O)Nc1ccc(Cl)cn1)CC2
pIC50: 5.772
IC50: 1240 nM

Cc1ccccc1CNCC(O)c1ccc(OC(C)C)cc1 (configuration not stated)
pIC50: 6.206
IC50: 637 nM

Cc1cccc2[nH]c(-c3cn(C4CCNCC4)nn3)nc12
pIC50: 6.226
IC50: 597 nM

CN1CCC(C2CCN(Cc3cccc(-n4cccn4)c3)CC2)C1 (configuration not stated)
pIC50: 6.139
IC50: 656 nM

CCN1CCCN(S(=O)(=O)c2cc3ccccc3o2)CC1
pIC50: 6.321
IC50: 532 nM

Cc1ccc(CN2CCCC3(CCN(Cc4ccoc4)CC3)C2)cc1.O=C(O)C(F)(F)F.O=C(O)C(F)(F)F
pIC50: 6.068
IC50: 1110 nM

CCN(CC)C(CNC(=O)c1c(C)noc1C(C)C)c1ccsc1 (configuration not stated)
pIC50: 6.097
IC50: 1360 nM

COc1ccnc(CN2CCCC(CCc3ccccc3)C2)c1OC (configuration not stated)
pIC50: 5.985
IC50: 1030 nM

CNC(=O)CCN(C)CC1(c2ccc(Br)cc2)CC1
pIC50: 6.438
IC50: 340 nM

CSc1ccc(-c2nc(CN3CCC(CN)C3)c(C)o2)cc1 (configuration not stated)
pIC50: 5.962 and 5.805 and 6.058
IC50: 1020 nM

Cc1ccccc1CNCc1cc(Cl)ccc1O
pIC50: 6.395
IC50: 601 nM

O=C(O)C(F)(F)F.O=C(O)C(F)(F)F.c1cncc(N2CCCC3(CCN(CCN4CCCC4)CC3)C2)c1
pIC50: 5.977
IC50: 1020 nM

COc1cccc(CNCc2ccc(F)c(Cl)c2)c1O
pIC50: 6.294
IC50: 500 nM

O[C@H]1[C@H](n2cc(CN3CCCC3)nn2)c2ccccc2C12CCNCC2
pIC50: 7.12
IC50: 64.7 nM

CN1CCN(Cc2ccccc2Oc2nccc3occc23)CC1
pIC50: 6.2
IC50: 593 nM

Cc1cccnc1CN1CC[C@H](Oc2cccc(F)c2)[C@@](C)(O)C1
pIC50: 6.112
IC50: 710 nM

CC(C)=CCN1CCC2(CC1)c1ccccc1[C@@H](N1CCSCC1)[C@@H]2O
pIC50: 5.994
IC50: 991 nM

Cc1cc(Cl)ccc1S(=O)(=O)NCC(C)N1CCN(C)CC1 (configuration not stated)
pIC50: 6.144
IC50: 444 nM

CC(C)(C)C(=O)N1C[C@H](c2ccsc2)[C@H]2CN(C3CCCCC3)CC[C@H]21.Cl
pIC50: 6.133
IC50: 683 nM

CC(C)NC(=O)C1(Cc2ccccc2-c2cccs2)CCNC1 (configuration not stated)
pIC50: 6.06
IC50: 982 nM

O=S(=O)(NCC(c1ccsc1)N1CCCCCC1)c1cccs1 (configuration not stated)
pIC50: 6.118
IC50: 904 nM

CC(O)CN1CCC(CNCc2cccc(C(F)(F)F)c2)CC1 (configuration not stated)
pIC50: 6.332
IC50: 751 nM

CN(Cc1ccccc1-n1cccn1)C[C@@H]1CCCN2CCCC[C@H]12
pIC50: 6.129
IC50: 852 nM

O=C(O)C(F)(F)F.O=C(O)C(F)(F)F.O=C(O)C(F)(F)F.c1cnn(C[C@@H]2C[C@@H]3CN(CC4CC4)CC[C@@H]3N2c2nccs2)c1
pIC50: 6.063
IC50: 859 nM

c1ccc(C2CN(C3CC3)CC3(CCN(Cc4ncc[nH]4)CC3)C2)cc1 (configuration not stated)
pIC50: 6.233 and 5.873

COCCC1(CNC(=O)Nc2ccnc(C)c2)CCCC1
pIC50: 6.054
IC50: 876 nM

OCCN1CCC(CNCc2ccc(Br)cc2)CC1
pIC50: 6.334
IC50: 364 nM

Cn1nc(CN2CCCCC(N)C2)c2c(Cl)cccc21 (configuration not stated)
pIC50: 6.151
IC50: 800 nM

Fc1ccc(Nc2ccc(C3CCN(Cc4ncc[nH]4)CC3)nc2)nc1
pIC50: 6.119
IC50: 987 nM

Oc1cccc2ccc(CN3CCC4(CCNCC4)C3)nc12
pIC50: 6.257
IC50: 736 nM

CC(C)[C@@H]1CN(C(=O)C2(c3ccccc3)CCN(C)CC2)C[C@H]1N(C)C
pIC50: 6.113
IC50: 710 nM

CCC[C@H]1CN(S(=O)(=O)c2ccc(-c3c(C)noc3C)s2)C[C@@H]1N
pIC50: 6.179
IC50: 798 nM

O=C(c1scc2c1OCCO2)N1CCOC(CCc2ccccc2)C1 (configuration not stated)
pIC50: 6.32
IC50: 386 nM

Fc1ccccc1Sc1ccccc1CNC1=NCCN1.I
pIC50: 5.863
IC50: 1610 nM

CN1CCCC(c2cccc(Cc3ccccc3Cl)n2)C1 (configuration not stated)
pIC50: 6.022
IC50: 1020 nM

CC(C)(C)CNCC1(O)CCCN(Cc2ccccc2F)C1=O (configuration not stated)
pIC50: 6.115
IC50: 770 nM

OCc1csc(N2CCCC(COc3cccc(F)c3)C2)n1 (configuration not stated)
pIC50: 6.326
IC50: 363 nM

Cc1cccc(Nc2cccc(C3CCCN(Cc4ncc[nH]4)C3)n2)n1 (configuration not stated)
pIC50: 6.378
IC50: 465 nM

CCn1ccnc1CN1CCCC(CO)(Cc2cccc(Cl)c2)C1 (configuration not stated)
pIC50: 6.076
IC50: 575 nM

CNS(=O)(=O)c1cccc(C(C)NCc2ccccc2OC)c1 (configuration not stated)
pIC50: 6.041
IC50: 1090 nM

CC(C)CNC(=O)C1(Cc2ccccc2-c2cccs2)CCNC1 (configuration not stated)
pIC50: 6.092
IC50: 626 nM

CN(Cc1cc(Cl)cc2cccnc12)CC1CCN(CCO)CC1
pIC50: 6.604
IC50: 346 nM

O=C(NC1CCN(CC2CCCC2)C1)N1CCC(OCC2CC2)CC1 (configuration not stated)
pIC50: 5.978
IC50: 966 nM

CC(NCC1CCN(CCO)CC1)c1cccc(Cl)c1 (configuration not stated)
pIC50: 6.336
IC50: 442 nM

Cc1ccc(CN(Cc2ccccn2)C2CC(C)(C)NC(C)(C)C2)s1.O=C(O)CC(O)(CC(=O)O)C(=O)O
pIC50: 6.418
IC50: 432 nM

Cc1ccsc1CN(CCCN(C)C)Cc1ccccn1
pIC50: 6.353
IC50: 409 nM
